{"source": "ChEMBL document CHEMBL3508693", "about": "(2016)", "key": {"[1]": {"test": "Excretion (0-72h) of aliskiren in faeces following intravenous administration of [14C] aliskiren hemifumarate at 1 mg.Kg-1 level in marmoset", "assay_type": "ADME, organism-based, Callithrix jacchus, Feces", "conditions": "in vivo"}, "CYP1A2": {"molecular_target": "T1, CYP1A2 (Homo sapiens, UniProt P05177)", "T1 sequence (P05177 whole entry)": "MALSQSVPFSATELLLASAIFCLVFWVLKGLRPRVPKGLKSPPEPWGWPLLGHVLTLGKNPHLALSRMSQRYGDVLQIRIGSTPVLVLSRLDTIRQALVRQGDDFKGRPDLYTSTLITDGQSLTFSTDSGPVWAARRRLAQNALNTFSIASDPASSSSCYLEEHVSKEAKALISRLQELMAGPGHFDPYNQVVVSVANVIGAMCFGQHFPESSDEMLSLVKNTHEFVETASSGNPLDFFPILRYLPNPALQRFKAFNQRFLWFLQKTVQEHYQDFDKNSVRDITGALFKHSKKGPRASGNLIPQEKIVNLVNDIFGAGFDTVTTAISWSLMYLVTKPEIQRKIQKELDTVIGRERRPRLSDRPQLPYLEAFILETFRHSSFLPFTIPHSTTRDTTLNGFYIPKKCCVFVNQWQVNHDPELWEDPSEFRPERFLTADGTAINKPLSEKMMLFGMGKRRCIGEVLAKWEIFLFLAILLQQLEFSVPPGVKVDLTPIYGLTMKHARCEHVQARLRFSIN", "test": "Inhibitory activity of 200 uM SPP100 on 548 Pmoles of cDNA-derived CYP1A2 enzyme in microsome prepared from human lymphoblastoid cell line", "assay_type": "ADME, microsomes", "set-up": "conc 200 uM, interact cpd conc 50 uM", "conditions": "probe phenacetin"}, "CYP2A6 [2]": {"molecular_target": "T2, CYP2A6 (Homo sapiens, UniProt P11509)", "T2 sequence (P11509 whole entry)": "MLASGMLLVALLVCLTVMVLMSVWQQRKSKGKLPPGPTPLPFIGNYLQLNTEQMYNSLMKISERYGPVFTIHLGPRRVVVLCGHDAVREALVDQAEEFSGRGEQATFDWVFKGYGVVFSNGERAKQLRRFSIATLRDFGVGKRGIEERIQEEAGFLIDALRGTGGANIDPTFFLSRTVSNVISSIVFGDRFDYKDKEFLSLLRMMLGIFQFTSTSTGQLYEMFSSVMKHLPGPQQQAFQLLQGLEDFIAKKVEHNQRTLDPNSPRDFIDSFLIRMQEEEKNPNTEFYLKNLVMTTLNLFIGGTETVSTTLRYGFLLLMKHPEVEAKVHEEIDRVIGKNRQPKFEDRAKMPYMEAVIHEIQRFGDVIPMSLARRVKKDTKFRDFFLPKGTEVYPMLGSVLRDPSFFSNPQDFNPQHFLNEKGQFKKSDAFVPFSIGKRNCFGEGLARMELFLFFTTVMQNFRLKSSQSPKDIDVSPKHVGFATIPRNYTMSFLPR", "test": "Inhibitory activity of 20 uM SPP100 on 37 Pmoles of cDNA-derived CYP2A6 enzyme in microsome prepared from human lymphoblastoid cell line", "assay_type": "ADME, microsomes", "set-up": "conc 20 uM, interact cpd conc 3 uM", "conditions": "probe coumarine"}, "CYP2A6 [3]": {"molecular_target": "T2, CYP2A6", "test": "Inhibitory activity of 200 uM SPP100 on 37 Pmoles of cDNA-derived CYP2A6 enzyme in microsome prepared from human lymphoblastoid cell line", "assay_type": "ADME, microsomes", "set-up": "conc 200 uM, interact cpd conc 3 uM", "conditions": "probe coumarine"}, "CYP2C9": {"molecular_target": "CYP2C9 (Homo sapiens, UniProt P11712)", "sequence (P11712 whole entry)": "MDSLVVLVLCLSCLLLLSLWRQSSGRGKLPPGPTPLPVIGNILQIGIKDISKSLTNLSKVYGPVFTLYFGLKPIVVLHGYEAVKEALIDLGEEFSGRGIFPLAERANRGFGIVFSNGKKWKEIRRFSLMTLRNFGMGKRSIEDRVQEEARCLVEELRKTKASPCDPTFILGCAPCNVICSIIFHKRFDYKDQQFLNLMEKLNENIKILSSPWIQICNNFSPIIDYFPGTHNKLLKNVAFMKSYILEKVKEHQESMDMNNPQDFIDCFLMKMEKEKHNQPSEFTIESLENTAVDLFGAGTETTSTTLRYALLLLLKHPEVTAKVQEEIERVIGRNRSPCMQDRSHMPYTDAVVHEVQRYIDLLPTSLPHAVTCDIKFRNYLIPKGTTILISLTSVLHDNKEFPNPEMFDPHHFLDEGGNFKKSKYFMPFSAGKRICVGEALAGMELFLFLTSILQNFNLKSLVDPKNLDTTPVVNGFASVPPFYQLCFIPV", "test": "Inhibitory activity of 20 uM SPP100 on 227 Pmoles of cDNA-derived CYP2C9 enzyme in microsome prepared from human lymphoblastoid cell line", "assay_type": "ADME, microsomes", "set-up": "conc 20 uM, interact cpd conc 6 uM", "conditions": "probe diclofenac"}, "CYP2C19": {"molecular_target": "CYP2C19 (Homo sapiens, UniProt P33261)", "sequence (P33261 whole entry)": "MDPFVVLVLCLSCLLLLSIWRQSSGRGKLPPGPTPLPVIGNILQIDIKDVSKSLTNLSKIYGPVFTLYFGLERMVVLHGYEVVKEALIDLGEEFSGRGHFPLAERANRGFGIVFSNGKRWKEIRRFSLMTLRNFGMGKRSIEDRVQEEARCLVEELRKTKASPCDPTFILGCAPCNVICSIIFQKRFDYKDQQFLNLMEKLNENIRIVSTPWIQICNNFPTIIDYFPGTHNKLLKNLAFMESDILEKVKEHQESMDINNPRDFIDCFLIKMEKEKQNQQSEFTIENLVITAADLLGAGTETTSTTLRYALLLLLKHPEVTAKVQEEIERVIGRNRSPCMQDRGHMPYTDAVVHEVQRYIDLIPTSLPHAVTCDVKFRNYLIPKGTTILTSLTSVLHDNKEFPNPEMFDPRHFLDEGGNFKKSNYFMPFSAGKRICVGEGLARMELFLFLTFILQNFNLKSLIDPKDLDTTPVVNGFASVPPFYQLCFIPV", "test": "Inhibitory activity of 200 uM SPP100 on 1156 Pmoles of cDNA-derived CYP2C19 enzyme in microsome prepared from human lymphoblastoid cell line", "assay_type": "ADME, microsomes", "set-up": "conc 200 uM, interact cpd conc 50 uM", "conditions": "probe (S)-mephenytoin (50 uM)"}, "[4]": {"test": "% SPP100 recovered in urine following single intravenous administration of 10 mg.Kg-1 [14C] aliskiren hemifumarate in male rat", "assay_type": "ADME, organism-based, HAN:WIST(SPF)", "conditions": "in vivo"}, "[5]": {"test": "% of radioactivity recovered as aliskiren in faeces following oral administration of [14C] aliskiren hemifumarate at 100 mg.Kg-1 level in rat", "assay_type": "ADME, organism-based, Albino HAN:WIST, Feces", "conditions": "in vivo"}, "[6]": {"test": "Total excretion of radioactivity following intravenous administration of [14C] aliskiren hemifumarate at 1 mg.Kg-1 level in marmoset", "assay_type": "ADME, organism-based, Callithrix jacchus, Urine/Feces", "conditions": "in vivo"}, "[7]": {"test": "Mean excretion of radioactivity (0-24h) in urine and faeces following single intravenous dose of 10 mg.Kg-1 [14C] aliskiren hemifumarate in mouse", "assay_type": "ADME, organism-based, TgRasH2, Urine/Feces", "conditions": "in vivo"}, "[8]": {"test": "Mean excretion of radioactivity (48-72h) in urine and faeces following single oral dose of 500 mg.Kg-1 [14C] aliskiren hemifumarate in mouse", "assay_type": "ADME, organism-based, TgRasH2, Urine/Feces", "conditions": "in vivo"}, "[9]": {"test": "% of radioactivity (24h) recovered in urine following single intravenous administration of 10 mg.Kg-1 [14C] aliskiren hemifumarate in male rat", "assay_type": "ADME, organism-based, HAN:WIST(SPF)", "conditions": "in vivo"}, "[10]": {"test": "Mean excretion of radioactivity (24-48h) in urine and faeces following single intravenous dose of 10 mg.Kg-1 [14C] aliskiren hemifumarate in rat", "assay_type": "ADME, organism-based, Albino HAN:WIST, Urine/Feces", "conditions": "in vivo"}, "[11]": {"test": "Excretion of radioactivity (48-72h) in faeces following single intravenous dose of 10 mg.Kg-1 [14C] aliskiren hemifumarate in rat", "assay_type": "ADME, organism-based, Albino HAN:WIST, Feces", "conditions": "in vivo"}, "[12]": {"test": "Cmax (0-168h) of total radioactivity following single oral administration of [14C] aliskiren hemifumarate at 3 mg.Kg-1 level in marmoset", "assay_type": "ADME, organism-based, Callithrix jacchus, Plasma", "conditions": "in vivo"}, "[13]": {"test": "Tmax of aliskiren hemifumarate following single dosing of SPP100B oral solution at 40 mg level studied on day 1 in men", "assay_type": "ADME, organism-based", "conditions": "male, human, plasma"}, "[14]": {"test": "Cmax of aliskiren hemifumarate following 8 day once-daily dosing of SPP100B oral solution at 40 mg level studied on day 8 in men", "assay_type": "ADME, organism-based", "conditions": "male, human, plasma"}, "[15]": {"test": "Tmax of aliskiren hemifumarate following 8 day once-daily dosing of SPP100B oral solution at 80 mg level studied on day 8 in men", "assay_type": "ADME, organism-based", "conditions": "male, human, plasma"}, "[16]": {"test": "Cmax of unlabeled aliskiren hemifumarate following single intravenous dose of aliskiren hemifumarate at 10 mg.Kg-1 level in mouse", "assay_type": "ADME, organism-based", "conditions": "TgRasH2, mouse, plasma"}, "[17]": {"test": "Cmax of aliskiren hemifumarate following 2 week oral dosing of aliskiren hemifumarate at 10 mg.Kg-1 level studied on […] in male Callithrix jacchus", "assay_type": "ADME, organism-based", "conditions": "marmoset, plasma"}, "[18]": {"test": "Cmax of aliskiren hemifumarate following 4 week oral dietary dosing of aliskiren hemifumarate at 2000 mg.Kg-1 level in male mouse", "assay_type": "ADME, organism-based", "conditions": "CB6F1-TGrasH2, mouse, in vivo"}, "[19]": {"test": "Cmax/dose of aliskiren hemifumarate following 4 week oral dietary dosing of aliskiren hemifumarate at 1000 mg.Kg-1 level in female mouse", "assay_type": "ADME, organism-based, CB6F1-TGrasH2", "conditions": "in vivo, 672 h"}, "[20]": {"test": "AUC(0-24h) of aliskiren hemifumarate following 2 week oral dosing of aliskiren hemifumarate at 10 mg.Kg-1 level studied on day 14 in female Callithrix jacchus", "assay_type": "ADME, organism-based", "conditions": "marmoset, plasma"}, "[21]": {"test": "AUCspec of aliskiren hemifumarate following 2 week oral dosing of aliskiren hemifumarate at 100 mg.Kg-1 level studied on day 1 in male Callithrix jacchus", "assay_type": "ADME, organism-based, Plasma", "conditions": "marmoset, in vivo, 336 h"}, "[22]": {"test": "AUC infinity of aliskiren hemifumarate following 2 week oral dosing of aliskiren hemifumarate at 50 mg.Kg-1 level studied on day 1 in male Callithrix jacchus", "assay_type": "ADME, organism-based", "conditions": "marmoset, plasma, read-out: AUC infinity"}, "[23]": {"test": "Tmax (0-168h) of unlabeled aliskiren hemifumarate following single intravenous administration of aliskiren hemifumarate at 1 mg.Kg-1 level in marmoset", "assay_type": "ADME, organism-based, Callithrix jacchus", "conditions": "plasma"}, "[24]": {"test": "AUC/dose (0-168h) of unlabeled aliskiren hemifumarate following single oral administration of aliskiren hemifumarate at 3 mg.Kg-1 level in marmoset", "assay_type": "ADME, organism-based, Callithrix jacchus, Plasma", "conditions": "in vivo"}}, "data": [{"smiles": "COCCCOc1cc(C[C@@H](C[C@H](N)[C@@H](O)C[C@H](C(=O)NCC(C)(C)C(N)=O)C(C)C)C(C)C)ccc1OC", "values": [{"measurement": "Compound recovery", "setting": "[1]", "value": 36, "unit": "%"}, {"measurement": "inhibition at 200 µM", "setting": "CYP1A2", "value": -6.4, "unit": "%"}, {"measurement": "inhibition at 20 µM", "setting": "CYP2A6 [2]", "value": 2.6, "unit": "%"}, {"measurement": "inhibition at 200 µM", "setting": "CYP2A6 [3]", "value": 2.6, "unit": "%"}, {"measurement": "inhibition at 20 µM", "setting": "CYP2C9", "value": 13.1, "unit": "%"}, {"measurement": "inhibition at 200 µM", "setting": "CYP2C19", "value": 3, "unit": "%"}, {"measurement": "Compound recovery", "setting": "[4]", "value": 79.8, "unit": "%"}, {"measurement": "Compound recovery", "setting": "[5]", "value": "> 40", "unit": "%"}]}, {"smiles": "COCCCOc1cc(C[C@@H](C[C@H](N)[C@@H](O)C[C@H](C(=O)NCC([14CH3])([14CH3])C(N)=O)C(C)C)C(C)C)ccc1OC.O=C(O)/C=C/C(=O)O", "values": [{"measurement": "Radiolabel recovery", "setting": "[6]", "value": 83.1, "unit": "%"}, {"measurement": "Radiolabel recovery", "setting": "[7]", "value": 84.68, "unit": "%"}, {"measurement": "Radiolabel recovery", "setting": "[8]", "value": 9.33, "unit": "%"}, {"measurement": "Radiolabel recovery", "setting": "[9]", "value": 6.2, "unit": "%"}, {"measurement": "Radiolabel recovery", "setting": "[10]", "value": 28.9, "unit": "%"}, {"measurement": "Radiolabel recovery", "setting": "[11]", "value": 4.69, "unit": "%"}, {"measurement": "Cmax", "setting": "[12]", "value": 0.359, "unit": "µM"}]}, {"smiles": "COCCCOc1cc(C[C@@H](C[C@H](N)[C@@H](O)C[C@H](C(=O)NCC(C)(C)C(N)=O)C(C)C)C(C)C)ccc1OC.COCCCOc1cc(C[C@@H](C[C@H](N)[C@@H](O)C[C@H](C(=O)NCC(C)(C)C(N)=O)C(C)C)C(C)C)ccc1OC.O=C(O)/C=C/C(=O)O", "note": "[ALISKIREN FUMARATE]", "values": [{"measurement": "Tmax", "setting": "[13]", "value": 1.6, "unit": "h"}, {"measurement": "Cmax", "setting": "[14]", "value": 6.2, "unit": "ng/mL"}, {"measurement": "Tmax", "setting": "[15]", "value": 1.8, "unit": "h"}, {"measurement": "Cmax", "setting": "[16]", "value": 19.8, "unit": "µM"}, {"measurement": "Cmax", "setting": "[17]", "value": 5770, "unit": "ng/mL"}, {"measurement": "Cmax", "setting": "[18]", "value": 439, "unit": "ng/mL"}, {"measurement": "Cmax normalised", "setting": "[19]", "value": "0.167 (ng/mL)/(mg/kg/day)"}, {"measurement": "AUC at 24 h", "setting": "[20]", "value": 29000, "unit": "ng·h/mL"}, {"measurement": "AUC normalised", "setting": "[21]", "value": "0.764 ((ug.h.ml-1)/(mg/kg)"}, {"measurement": "AUC(0-inf)", "setting": "[22]", "value": 64000, "unit": "ng·h/mL"}, {"measurement": "Tmax", "setting": "[23]", "value": 4.98, "unit": "min"}, {"measurement": "AUC normalised", "setting": "[24]", "value": "1.52 (umol.h/L)/(mg/kg)"}]}]}
